Assay [1] relates to Staphylococcus aureus (SAU). The assay can be described thus: paper diffusion method drug sensitivity test. It counts as cell-based. The note with it: 30 μg/tablet paper disc (6.35 mm), LB plate, 37° C., 24 h. As for the experimental part:
(§1) The antimicrobial efficacy was determined by a paper diffusion method drug sensitivity test.
(§2) Experimental strains: Staphylococcus aureus (SAU), multi-resistant Staphylococcus aureus 18-206. The experimental strain was identified by Huashan Hospital Affiliated to Fudan University (Institute of Antibiotic of Fudan University).
(§3) Drug sensitive paper: The drug sensitive paper is a special drug sensitive paper with a diameter of 6.35 mm and a water absorption of 0.02 mL. The control drug was cefazolin (30 μg/tablet); the test drugs were cassic acid (30 μg/tablet), cinnamyl alcohol (30 μg/tablet) and cinnamyl alcohol cassic acid ester (30 μg/tablet).
(§4) Reagents: LB agar medium, LA broth medium, 0.5% DMSO solution.
(§5) The experimental strains were inoculated in non-selective medium and placed in air at 37° C. for 24 h. Pick a single colony that grows well and inoculate it into broth medium, incubate at 35° C.±2° C. for 6 hours, and use LA broth medium to calibrate the concentration of the bacterial solution to 0.5 Mie turbidimetric tube (1.5×10^8 CFU/mL). A bacterial suspension is obtained.
(§6) Weigh the LB dry powder, sterilize at 103.4 Kpa, 121.3° C. high-pressure steam for 15 min, and then put it in a 40° C.-50° C. water bath. Place a sterile empty plate (inner diameter 9 cm) on the surface of the ultra-clean table water table, shake and shake LB, and then pour the plate. The thickness of each plate is 3 mm to 4 mm. After the plate is cooled at room temperature, store it in the refrigerator at 2° C.-8° C. Use a sterile cotton swab to dip the bacterial solution, and evenly coat the surface of the LB plate 3 times. After inoculation of the bacterial suspension, the LB plate was dried at room temperature for 3 min to 5 min. Use sterile forceps to closely attach the antibacterial drug paper to the dish. Put the dish upside down and place it in a 37° C. incubator for 24 h. Observe the result and measure the diameter. Taking 0.5% DMSO solution as a negative control, the antibacterial activity is expressed by the diameter of the inhibition zone. The inhibition zone ≥17 mm, sensitive; the inhibition zone is 15 mm-16 mm, intermediary; the inhibition zone ≤14 mm, drug resistance.

Assay [2] relates to multi-resistant Staphylococcus aureus 18-206. The assay can be described thus: paper diffusion method drug sensitivity test. It counts as cell-based. The note with it: for Zone of inhibition: Multi-resistant Staphylococcus aureus 18-206, 30 μg/tablet paper disc (6.35 mm), LB plate, 37° C., 24 h; for inhibitory effect on drug-resistant bacteria (in words): multi-resistant Staphylococcus aureus 18-206, summary of Table 1. How it is done: as §1, §2, §3, §4, §5, §6

Four compounds from patent US10947182B1, “Cinnamyl alcohol cassic acid ester with antibacterial activity and a method of preparing the same” (SHAANXI UNIVERSITY OF SCIENCE AND TECHNOLOGY, priority 2020, dated 2021) can be followed below.

`OCC=Cc1ccccc1` [Cinnamyl alcohol] yielded a Zone of inhibition in assay [1] of 17 mm. In assay [2], the Zone of inhibition was 0 mm and the “inhibitory effect on drug-resistant bacteria (in words)” value is on record as “no inhibitory effect”.
In turn, `O=C(OC/C=C/c1ccccc1)c1cc(O)c2c(c1)C(=O)c1cccc(O)c1C2=O` [Cinnamyl alcohol cassic acid ester, Cinnamyl 4,5-dihydroxy-9,10-dioxo-9,10-dihydroanthracene-2-carboxylate] registered a Zone of inhibition in assay [1] of 13 mm. Moreover, in assay [2], the Zone of inhibition turned out to be 15 mm and the “inhibitory effect on drug-resistant bacteria (in words)” value is given as “strong suppression effect”.
`Cc1nnc(SCC2=C(C(=O)O)N3C(=O)[C@@H](NC(=O)Cn4cnnn4)[C@H]3SC2)s1` [Cefazolin]: the Zone of inhibition in assay [1] is listed as 34 mm; in assay [2] it was 22 mm.
On the same counts, the results for `O=C(O)c1cc(O)c2c(c1)C(=O)c1cccc(O)c1C2=O` [Cassic acid] are 7 mm and 7 mm.
